In article PMC5947527 (Chemical Science, 2015):
Entries after “also recorded” stand apart in the source; their conditions may differ. Non-standard residues stand in square brackets, D forms with d. Residues, ends and D or L forms follow the SMILES beside them. *: point of attachment. Decanoyl(3,6,9-trioxa) = COCCOCCOCC(=O)*; NBD = O=[N+]([O-])c1ccc(*)c2nonc12; dNle = CCCC[C@@H](N)C(=O)O; Nle = CCCC[C@H](N)C(=O)O; AEEA = NCCOCCOCC(=O)O; Ahx = NCCCCCC(=O)O

Columns and labels:
[1] = broncho-alveolar lavage fluid (BALF) retrieved from ventilated ICU patients with Acute Respiratory Distress Syndrome (ARDS); pooled samples from three patients; conditions: human, up to 30min
[2] = test system: methicillin-sensitive Staphylococcus aureus; experiment: Confocal labelling of MSSA with quantified fluorescence; assay type: cell-based; conditions: MSSA, 10 μM, fluorescence normalized to UBI-3, mean ± SEM, n ≥ 3
Procedure: Fig. 6 Confocal Images of compounds UBI-3 to 9 with quantified fluorescence. Panels show methicillin-sensitive Staphylococcus aureus incubated with UBI-3 to 9 (all 10 μM) with quantification of bacterial fluorescence normalized to UBI-3 (bars represent mean (±SEM), n ≥ 3, ns = not significant, *** = p < 0.001, * = p < 0.05, scale bar = 10 μm).
Fig. 8 Confocal images and quantification of cyclic variants when compared to UBI-3. Panels show methicillin-sensitive Staphylococcus aureus incubated with cyclic UBI compounds (all 10 μM) with quantification of bacterial fluorescence normalized to UBI-3 (bars represent mean (±SEM), n ≥ 3, ns = not significant, ** = p < 0.01, scale bar = 10 μm).
Bacterial Culture and Labelling: Bacteria used were K. pneumoniae (ATCC BAA1706) ATCC, E. coli (ATCC 25922) ATCC, A. baumannii (J3433) Clinical Isolate, P. aeruginosa (J3284) Clinical Isolate, Methicillin Resistant S. aureus (MRSA) (ATCC25923) ATCC and Methicillin Sensitive S. aureus (MSSA) (ATCC 252) ATCC. All bacteria were grown on Lysogeny broth (LB) agar and from a single bacterial colony placed into 10ml of LB and incubated at 37°C for 16 hours in an orbital shaker.
Cultures were centrifuged at 4000rpm for 5 minutes and the pellet resuspended in 1ml phosphate buffered saline (PBS, Life Technologies). Following three further washes in PBS the cultures were reconstituted to 1 OD595 nm. Bacteria were counterstained with 5µM Syto 82 orange fluorescent nucleic acid stain (Invitrogen, CA, USA) in a shaking heat block at 37 °C for 20 minutes. For FCFM bacteria were stained with 1µM Calcein AM (Sigma, MO, USA) for 30 minutes at 37 °C. Counterstained bacteria were washed in PBS to remove excess dye. […]
Confocal Analysis and Fluorescence Quantification: 8-Well Lab-Tek II Confocal Chambers (VWR, PA, USA) were coated in fibronectin (for neutrophil experiments) or poly-d-lysine (for bacteria) at 37 °C for 20 minutes, then washed in PBS prior to bacterial innoculation. For co-culture assays, neutrophils were seeded on fibronectin coated wells at 1 x 10^5 neutrophils per well for 20 minutes and non-adherent neutrophils aspirated. Bacteria were added to each chamber to a final concentration of 0.5 OD595 nm with the desired final concentration of Smartprobe. A laser-scanning confocal imaging system (LSM510; Carl Zeiss, Jena, Germany), incorporating an upright Axioskop FS2 microscope (63× objective) was used for image acquisition and processing. Exposure to 488 nm light was limited to 5% of the maximum laser power in order to minimize toxicity. ‘Green’ fluorescence (for FAM and NBD) was excited with a dedicated 488 nm line and emitted light detected with meta detector (500-530 nM).
Syto nuclear and dyes were excited with a dedicated 543 nm line, and emitted light detected with meta detector (570-610 nM). Fields of view were chosen based on the counterstain and at least three fields of view were recorded for each condition. For affinity assays, following initial imaging, the fluid was aspirated and two gentle washes with PBS were performed. The chamber was re-imaged on confocal.
Analysis was with ImageJ (version 1.46r, National Institutes of Health, USA); the Syto channel was automatically thresholded (MaxEntropy, with a set threshold 0-47) and an ROI generated from this. The […]
mean fluorescence intensity on the probe channel within this ROI was quantified. Data presented represents the mean of three experiments, from each of which three separate fields of view were assessed. All experiments were performed at least three times unless otherwise stated and results expressed as mean ± SEM. Data was analysed by unpaired t-test and significance was determined as p<0.05 (GraphPad Prism version 5.01 for Windows, GraphPad Software, San Diego California USA).
Ex vivo Human Lung and FCFM Procedure: Human lung samples were obtained from patients undergoing surgical resection for lung carcinoma. All images were obtained on sections of normal lung […]

[3] = Stability in ARDS bronchoalveolar lavage fluid (MALDI-TOF MS); assay type: in vitro ADME, human; conditions: human ARDS BALF pooled from three patients vs PBS, 5 and 30 min, MALDI-TOF MS
Description: To determine the ability of UBI-3 to image bacteria in the continued presence of a complex inflammatory environment, bacteria were labelled with UBI-3 in the presence of broncho-alveolar lavage fluid (BALF) retrieved from ventilated ICU patients with Acute Respiratory Distress Syndrome (ARDS). ARDS BALF was utilised as ARDS is a severe life threatening pulmonary syndrome, characterized by a massive proteolytic and oxidative inflammatory environment within the distal alveolar region.[14] […] To design out susceptible amino acid cleavage points, a number of modifications were made (Table 1) and the functional consequences assessed. The chemical approaches pursued to improve resistance to degradation included replacing amino acids at the cleavage positions with non-natural amino acids such as N-methyl or D-amino acids,[15] and cyclisation of the peptide,[16] which could have the added benefit of enhancing affinity towards bacterial membrane.[17]
The Arg–Arg bonds were identified as the prominent position of degradation (Fig. 5) and Compounds UBI-4–9 (Table 1) were synthesised with a variety of substitutions around the degradation sites. The susceptible peptide bonds at P1–P2 and P7–P8 were blocked using N-MeArg (UBI-4), and to further mask these positions, a long polyethylene glycol (PEG) chain and/or a D-amino acid were positioned at the carboxylic and/or amino termini (UBI-5–7).
We hypothesized that cyclisation of the sequence would allow for greater stability and also improve bacterial affinity and therefore cyclic variants of UBI-3 were synthesized (UBI-10 and UBI-11), which were both found to be stable in BALF for 5 minutes (Fig. 7 and S3 ESI ^†). […] However, these studies also highlighted the degradation of UBI-10 at 10 minutes, guiding the temporal constraints of Smartprobe delivery and optical imaging.
Fig. 7 UBI-10 remains stable in ARDS BALF at 5 minutes. (A) Structure of UBI-10 with breakdown products in ARDS BALF. […] TEXT PRINTED IN THE PICTURE: UBI-10: Molecular Weight: 2118.41 | Fragment A: Molecular Weight: 1923.18 | Fragment B: Molecular Weight: 1980.23 DOUBTS OF THE COPYIST ABOUT THIS PICTURE: UBI-10, Molecular Weight: very small print, 2118.41 is the best reading; the digits 8 and 4 are uncertain / Fragment A, Molecular Weight: very small print, 1923.18 is the best reading; the digits 9, 3 and 8 are uncertain / Fragment B, Molecular Weight: very small print, 1980.23 is the best reading; the digits 9, 8 and 3 are uncertain […]
Supplementary Information
A Labelled-Ubiquicidin Antimicrobial Peptide for Immediate In Situ Optical Detection of Live Bacteria in Human Alveolar Lung Tissue
Ahsan R Akram, Nicolaos Avlonitis, Annamaria Lilienkampf, Ana M Perez-Lopez, Neil McDonald, Sunay V Chankeshwara, Emma Scholefield, Christopher Haslett, Mark Bradley & Kevin Dhaliwal.
Figure S1: MALDI-TOF MS spectra for a stability study of UBI-3 in PBS and in ARDS BALF […]
Figure S2. MALDI-TOF MS spectra of modified analogues UBI-4 to UBI-9 in Phosphate Buffered Saline and ARDS BALF over a period of 5 and 30min.
Figure S3: MALDI-TOF MS spectra of UBI-11 in Phosphate Buffered Saline vs ARDS BALF […]
Figure S4. Quantified fluorescence of confocal microscopy images of the compounds UBI-3, UBI-5 and UBI-10 on three bacteria and fluorescence retention following a PBS wash.
Figure S5: Fibered confocal fluorescence microscopy imaging of human lung and Calcein AM stained Methicillin sensitive S. aureus.
Experimental Details including Tables M1-4, Figure M1 and HPLC Chromatograms.
(also on this page, place not known: Electronic Supplementary Material (ESI) for Chemical Science. This journal is © The Royal Society of Chemistry 2015)
(1 picture or pasted object on this page, not shown here) […]
BALF Retrieval: Bronchoalveolar lavage was performed in the Intensive Care Unit (ICU), as previously described. S5 Pooled samples from three patients were used for stability assays. […]
Exposure to 488 nm light was limited to 5% […]

Compound	not cleaved [1]	bacterial labelling (fluorescence compared with UBI-3) [2]	other results
NBD-Ahx-Thr-Gly-Arg-Ala-Lys-MeArg-MeArg-Nle-Gln-Tyr-Asn-MeArg-MeArg-NH2	Stable in ARDS BALF		
NBD-Ahx-Thr-Gly-Arg-Ala-Lys-Arg-Arg-Nle-Gln-Tyr-Asn-Arg-Arg-NH2			cleaved bond [1]: ArgP8-ArgP7, major, <5 min; also recorded: ArgP2-ArgP1, major, <5 min
NBD-Ahx-cyclo[Lys-Thr-Gly-Arg-Ala-Lys-Arg-Arg-Nle-Gln-Tyr-Asn-Arg-MeArg-Gly]	stability in BALF for over 30 minutes		
CCCC[C@H](NC(=O)[C@H](CCCNC(=N)N)NC(=O)[C@H](CCCNC(=N)N)NC(=O)[C@H](CCCCN)NC(=O)[C@H](C)NC(=O)[C@H](CCCNC(=N)N)NC(=O)CNC(=O)[C@@H](NC(=O)CCCCCNc1ccc([N+](=O)[O-])c2nonc12)[C@@H](C)O)C(=O)N[C@@H](CCC(N)=O)C(=O)N[C@@H](Cc1ccc(O)cc1)C(=O)N[C@@H](CC(N)=O)C(=O)N[C@@H](CCCNC(=N)N)C(=O)N[C@@H](CCCNC(=N)N)C(=O)NCCOCCOCC(=O)NCCOCCOCC(N)=O [UBI-7] ({NBD-Ahx}-TGRAKRR[Nle]QYNRR[AEEA][AEEA]-NH2)		loss of bacterial labelling; also recorded: loss of labelling efficacy	stability in ARDS BALF [3]: did not improve stability in ARDS BALF; also recorded: Unstable in ARDS BALF at 30 minutes
NBD-Ahx-cyclo[Lys-Thr-Gly-Arg-Ala-Lys-Arg-Arg-Nle-Gln-Tyr-Asn-Arg-Arg-Gly]			cleaved bond [1]: Thr-Gly, first_seen, 10min; also recorded: Arg-Arg, major, 20min
MeO-PEG- D- Arg- D- Arg- D- Asn- D- Tyr- D- Gln- D- Nle- D- Arg- D- Arg- D- Lys- D- Ala- D- Arg-Gly- D- Thr-Lys(NBD)-OH	Stable in ARDS BALF		
CCCC[C@@H](NC(=O)[C@@H](CCC(N)=O)NC(=O)[C@@H](Cc1ccc(O)cc1)NC(=O)[C@@H](CC(N)=O)NC(=O)[C@@H](CCCNC(=N)N)NC(=O)[C@@H](CCCNC(=N)N)NC(=O)COCCOCCOC)C(=O)N[C@H](CCCNC(=N)N)C(=O)N[C@H](CCCNC(=N)N)C(=O)N[C@H](CCCCN)C(=O)N[C@H](C)C(=O)N[C@H](CCCNC(=N)N)C(=O)NCC(=O)N[C@@H](C(=O)N[C@@H](CCCCNc1ccc([N+](=O)[O-])c2nonc12)C(=O)O)[C@H](C)O [UBI-9] ({Decanoyl(3,6,9-trioxa)}-[dR][dR][dN][dY][dQ][dNle][dR][dR][dK][dA][dR]G[dT]K(NBD)-OH)		loss of labelling on bacteria; also recorded: loss of labelling efficacy	
NBD-PEG-D-Thr-Gly-D-Arg-D-Ala-D-Lys-D-Arg-D-Arg-D-Nle-D-Gln-D-Tyr-D-Asn-D-Arg-D-Arg-OH	Stable in ARDS BALF		
CCCC[C@H](NC(=O)[C@H](CCCNC(=N)N)NC(=O)[C@H](CCCNC(=N)N)NC(=O)[C@H](CCCCN)NC(=O)[C@H](C)NC(=O)[C@H](CCCNC(=N)N)NC(=O)CNC(=O)[C@@H](NC(=O)[C@H](CCCCNc1ccc([N+](=O)[O-])c2nonc12)NC(=O)COCCOCCOC)[C@@H](C)O)C(=O)N[C@@H](CCC(N)=O)C(=O)N[C@@H](Cc1ccc(O)cc1)C(=O)N[C@@H](CC(N)=O)C(=O)N[C@@H](CCCNC(=N)N)C(=O)N[C@@H](CCCNC(=N)N)C(=O)NCCOCCOCC(=O)NCCOCCOCC(N)=O [UBI-6] ({Decanoyl(3,6,9-trioxa)}-K(NBD)TGRAKRR[Nle]QYNRR[AEEA][AEEA]-NH2)		loss of labelling on bacteria; also recorded: loss of labelling efficacy	
CCCC[C@@H](NC(=O)[C@@H](CCCNC(=N)N)NC(=O)[C@@H](CCCNC(=N)N)NC(=O)[C@@H](CCCCN)NC(=O)[C@@H](C)NC(=O)[C@@H](CCCNC(=N)N)NC(=O)CNC(=O)[C@H](NC(=O)COCCOCCNc1ccc([N+](=O)[O-])c2nonc12)[C@H](C)O)C(=O)N[C@H](CCC(N)=O)C(=O)N[C@H](Cc1ccc(O)cc1)C(=O)N[C@H](CC(N)=O)C(=O)N[C@H](CCCNC(=N)N)C(=O)N[C@H](CCCNC(=N)N)C(=O)O [UBI-8] ({NBD-AEEA}-[dT]G[dR][dA][dK][dR][dR][dNle][dQ][dY][dN][dR][dR]-OH)		loss of labelling on bacteria; also recorded: loss of labelling efficacy	
NBD-Ahx-Thr-Gly-Arg-Ala-Lys-Arg-MeArg-Nle-Gln-Tyr-Asn-Arg-Arg-D-Phe-D-Val-NH2	Stable in ARDS BALF		
